Here are results for nine molecules from patent publication US20060194835A1, “Compositions and methods for treating or preventing flaviviridae infections” (priority 2005, published 2006).

One data set in a line: in vitro. The following applies: bovine.
Data set [1] concerns BVDV. The data set is described as follows: Protection of MDBK cells from BVDV-induced cytopathicity (CPE reduction, MTS/PMS). It is filed as cell-based, bovine viral diarrhea virus. The following applies: for EC50: 50% CPE reduction; for protection of MDBK cells from BVDV-induced cytopathicity (in words): at the concentrations tested. A general note: Protection from cytopathic effect is a common read-out in antiviral testing.

A short description of data set [2]: Drug cytotoxicity in uninfected MDBK cells (MTS/PMS). Particulars: bovine.
The next data set relates to BVDV strain NADL. The experiment in a line: Inhibition of viral release from BVDV-infected MDBK cells (plaque titer). Particulars: MOI = 1; for EC50: inhibits 50% of viral release; for EC50 / EC90: 24 hours; for EC90: inhibits 90% of viral release.
The test system of data set [3] is MDBK cells. The experiment in a line: Cytotoxicity of test compound in MDBK cells in the absence of viral infection (Example 1). The following applies: absence of viral infection.
Data set [4] deals with BVDV. The experiment in a line: Triple combination checkerboard CPE assay (celgosivir or castanospermine + interferon-α2b + ribavirin), MacSynergy II. Particulars: for EC50: read-out: Average Castanospermine EC50. Type of data set: cell-based, bovine viral diarrhea virus. The procedure:
Each double or triple combination was performed twice. The combination efficacy data were analyzed using the MacSynergy™ II software program as described herein.
Each double or triple combination was performed twice. The combination efficacy data were analyzed using the MacSynergy™ II software program as described herein. The EC50 for each of celgosivir and castanospermine was calculated from the triple combination studies described in Example 6.
Each double or triple combination was performed twice. The combination efficacy data were analyzed using the MacSynergy™ software program as described herein. The EC50 for interferon-α2b was calculated from the triple combination studies described in Example 6.

Data set [5] deals with BVDV. The data set is described as follows: Double combination checkerboard CPE assay, MacSynergy II and isobolograms. The following applies: at 10 IU/mL interferon-α2b. Type of data set: cell-based, bovine viral diarrhea virus. How it is done:
A double combination assay was performed using MDBK cells infected with BVDV in an inhibition of cytopathic effect (CPE) assay as described in Example 2. The double drug combinations were measured by creating a “checkerboard” of drug concentrations used on cell monolayers in microtiter plates, with one drug being titrated horizontally and the other drug titrated vertically, and each double combination being tested at least twice.
The EC50 values of a first test compound derived while in combination with a second test compound were plotted against the corresponding concentration of the second test compound to create an isobole (dose pair). All of the isoboles were plotted in an isobologram to determine the presence of synergy, antagonism or additivity for the combined test compounds. […] The line connecting the monotherapy EC50 values represents the theoretical additivity effect values for the two compounds.
In addition to generating isobolograms, the checkerboard data was imported into MacSynergy™ II software to graph the observed synergy (or additive or antagonism) volumes for the double combinations tested. Briefly, the calculated additive interactions were subtracted from the experimentally determined values to reveal the corresponding drug concentrations at which a synergistic (indicated by positive % values) or antagonistic (indicated by negative % values) effect is observed. The greater the positive percent volume observed, the greater the synergy between the two compounds. […] In contrast, any value about or less than −25 μM^2% or μM(IU/mL) % is indicative of a significant antagonistic effect. The data presented in Table 5 represent volumes of synergy or antagonism with 95% confidence. The confidence level was calculated using a Bonferroni adjustment as a conservative estimate of significance to statistically evaluate the data.

Data set [6] deals with MDBK cells. The data set is described as follows: Drug cytotoxicity in uninfected MDBK cells (MTS/PMS). The following applies: uninfected MDBK cells.
The mark [7] stands for this setting: Bovine viral diarrhea virus isolates and strains, MDBK, MOI 0.05.

For the molecule `O=C(N[C@@H](Cc1c[nH]c2ccccc12)C(=O)O)c1ccc2ccn(Cc3ccccc3)c2c1` [2-BAIP, (L)-2-[(1-Benzyl-1H-indole-6-carbonyl)-amino]-3-(1H-indol-3-yl)-propionic acid, reference compound], in the data set “in vitro”, the CC50 was more than 50 µM. This molecule registered an EC50 in the data set with BVDV [1] (setting [7]) of more than 50 µM. In addition, in the data set with BVDV [1], the “protection of MDBK cells from BVDV-induced cytopathicity (in words)” value was “do not protect”.
As to `NC12CC3CC(CC(C3)C1)C2` [Amantadine, amantadine, reference compound], the CC50 in data set [2] is more than 1000 µM. Besides, the EC50 was 357 µM in the data set with BVDV [1] (MOI 0.05) and 476 µM in the data set on BVDV [1] (setting [7]).
As for `O[C@H]1[C@H](O)[C@@H](O)CN2CC[C@H](O)[C@H]12` [Castanospermine, [1S-(1α,6β,7α,8β,8aβ)]-octahydro-1,6,7,8-indolizinetetrol], in the data set on BVDV strain NADL, the “TI (Therapeutic Index, CC50/EC50)” value is on record as more than 100. Moreover, the EC50 in the data set on BVDV strain NADL is 19.4 ± 8.3 µM; in the data set on BVDV [4] (Ribavirin 0 μM, Interferon-α2b 0 IU/mL, listed as castanospermine) it was approximately 52 µM; in the data set with BVDV [4] (Ribavirin 0 μM, Interferon-α2b 0 IU/mL), 52.2 ± 9.5 µM; with BVDV [4] (Ribavirin 0 μM, Interferon-α2b 0.7 IU/mL), 39 ± 13.4 µM; in the data set on BVDV [4] (Ribavirin 0 μM, Interferon-α2b 2.2 IU/mL) it was 18.9 ± 2.1 µM; in the data set on BVDV [4] (Ribavirin 0 μM, Interferon-α2b 6.7 IU/mL) it was 11.9 ± 2.5 µM. The EC50 is less than 1.3 µM in the data set on BVDV [4] (Ribavirin 0 μM, Interferon-α2b 20 IU/mL); 34.3 ± 3.4 µM in the data set on BVDV [4] (Ribavirin 0.12 μM, Interferon-α2b 0.7 IU/mL); 23.4 ± 2.4 µM in the data set on BVDV [4] (Ribavirin 0.12 μM, Interferon-α2b 2.2 IU/mL); 9.7 ± 4.8 µM in the data set on BVDV [4] (Ribavirin 0.12 μM, Interferon-α2b 6.7 IU/mL); less than 1.4 µM with BVDV [4] (Ribavirin 0.12 μM, Interferon-α2b 20 IU/mL); 27.7 ± 6.3 µM in the data set on BVDV [4] (Ribavirin 0.37 μM, Interferon-α2b 0.7 IU/mL). For the same molecule, the EC50 in the data set with BVDV [4] (Ribavirin 0.37 μM, Interferon-α2b 2.2 IU/mL) is 19.7 ± 5.2 µM; in the data set with BVDV [4] (Ribavirin 0.37 μM, Interferon-α2b 6.7 IU/mL) it was 6.5 ± 7.5 µM; in the data set with BVDV [4] (Ribavirin 0.37 μM, Interferon-α2b 20 IU/mL), less than 1.5 µM; with BVDV [4] (Ribavirin 1.1 μM, Interferon-α2b 0.7 IU/mL), 14 ± 4.5 µM; in the data set on BVDV [4] (Ribavirin 1.1 μM, Interferon-α2b 2.2 IU/mL), 6.9 ± 1 µM; in the data set with BVDV [4] (Ribavirin 1.1 μM, Interferon-α2b 6.7 IU/mL) it was less than 1.2 µM. In addition, the EC50 with BVDV [4] (Ribavirin 1.1 μM, Interferon-α2b 20 IU/mL) was less than 1.2 µM; with BVDV [4] (Ribavirin 3.3 μM, Interferon-α2b 0.7 IU/mL), less than 1.2 µM; in the data set on BVDV [4] (Ribavirin 3.3 μM, Interferon-α2b 2.2 IU/mL) it was less than 1.2 µM; in the data set on BVDV [4] (Ribavirin 3.3 μM, Interferon-α2b 6.7 IU/mL), less than 1.2 µM; in the data set on BVDV [4] (Ribavirin 3.3 μM, Interferon-α2b 20 IU/mL), less than 1.2 µM; in the data set on BVDV [1] (MOI 0.01, read-out: EC50), 62 ± 15 µM. In the data set on BVDV strain NADL, the EC90 worked out at 89 ± 21 µM. The CC50 in the data set on MDBK cells [3] was more than 2000 µM; in the data set on MDBK cells [6], more than 1000 µM. Moreover, the “dose-dependent reduction in EC50” value in the data set on BVDV [4] (upon the addition of increasing concentrations of interferon-α2b) is on record as “up to 52 fold”. Moreover, the “fold reduction of EC50 of castanospermine” value in the data set with BVDV [5] is given as “more than 7 fold”.
In the case of `CCCCN1C[C@H](O)[C@@H](O)[C@H](O)[C@H]1CO` [NB-DNJ, N-butyldeoxynojirimycin, reference compound], the CC50 in the data set on MDBK cells [6] was more than 500 µM. Further, in the data set on BVDV [1] (MOI 0.05, read-out: EC50), the EC50 came to 459 µM.
`C[C@@]1(O)[C@H](O)[C@@H](CO)O[C@H]1n1ccc(N)nc1=O` [NM-107, 2′-C-methyl cytidine, reference compound]: the CC50 in the data set “in vitro” came to 228 µM. In the data set on BVDV [1] (Bovine viral diarrhea virus isolates and strains, MDBK, MOI 0.01), this molecule gave an EC50 of 2.1 ± 0.5 µM.
With Interferon-α2b, in the data set on BVDV strain NADL, the “TI (Therapeutic Index, CC50/EC50)” value is more than 200. Further, the EC50 in the data set on BVDV strain NADL is given as 8.0 ± 6.8 IU/mL; in the data set with BVDV [1] (MOI 0.01), 19.4 ± 6 IU/mL. In the data set with BVDV strain NADL, this molecule registered an EC90 of 114 ± 92 IU/mL. In addition, the CC50 is more than 1000 IU/mL in the data set with MDBK cells [3] and more than 300 IU/mL with MDBK cells [6]. Further, the “Average Interferon-α2b EC50” value in the data set with BVDV [4] (Castanospermine added 0 μM) came to 16 IU/mL; in the data set with BVDV [4] (Castanospermine added 1.2 μM), 18 IU/mL; in the data set with BVDV [4] (Castanospermine added 3.7 μM), 13 IU/mL; in the data set with BVDV [4] (Castanospermine added 11 μM), 7 IU/mL; in the data set with BVDV [4] (Castanospermine added 33 μM), 1 IU/mL; in the data set with BVDV [4] (Celgosivir added 0 μM), 19 IU/mL. In addition, the “Average Interferon-α2b EC50” value is given as 21 IU/mL in the data set with BVDV [4] (Celgosivir added 0.25 μM), 14 IU/mL in the data set on BVDV [4] (Celgosivir added 0.74 μM), 5 IU/mL with BVDV [4] (Celgosivir added 2.2 μM) and less than 1 IU/mL in the data set with BVDV [4] (Celgosivir added 6.7 μM). In addition, the “EC50 of interferon-α2b” value is “less than 1 IU/mL” with BVDV [4] (at increased concentration of castanospermine or celgosivir) and “about 20 IU/mL” in the data set on BVDV [4] (without added castanospermine or celgosivir).
For the molecule “Interferon-ω: type I interferon, interferon-ω (Cedarlane Laboratories)”, in the data set on MDBK cells [6], the CC50 is recorded as more than 1000 IU/mL. In the data set on BVDV [1] (MOI 0.01), the EC50 was determined as 37 ± 1.4 IU/mL.
The matching figures for Peginterferon-α2a: more than 1000 IU/mL and 16.6 ± 11 IU/mL.

B1: Interferon-γ: type II interferon (protein, UniProt P01579 24-161, looked up)
Interferon gamma: QDPYVKEAENLKKYFNAGHSDVADNGTLFLGILKNWKEESDRKIMQSQIVSFYFKLFKNFKDDQSIQKSVETIKEDMNVKFFNSNKKKRDDFEKLTNYSVTDLNVQRKAIHELIQVMAELSPAAKTGKRKRSQMLFRG
The molecule B1 displayed a CC50 in the data set with MDBK cells [6] of more than 1000 IU/mL. This molecule also showed an EC50 with BVDV [1] (MOI 0.01) of more than 1000 IU/mL. Besides, the “protection of MDBK cells from BVDV-induced cytopathicity (in words)” value in the data set with BVDV [1] is recorded as “do not protect”.
